Experimental data taken from patent publication US11312723B2, “Pyranopyrazole and pyrazolopyridine immunomodulators for treatment of autoimmune diseases” (The Rockefeller University, priority 2017, dated 2022).

How the values were obtained:
Human FXIIa = Human FXIIa (Homo sapiens (Human), UniProt P00748); experiment: Factor XIIa (FXIIa) inhibitory activity, chromogenic substrate (Pefachrome XIIa) cleavage; type: biochemical; conditions: 10 min pre-incubation, Pefachrome XIIa 400 μM
Human alpha-thrombin = Human alpha-thrombin (Homo sapiens (Human), UniProt P00734); experiment: Thrombin counterscreen for selectivity, fluorogenic substrate cleavage; type: biochemical; conditions: 10 min pre-incubation, Boc-Val-Pro-Arg-AMC 20 μM
Description: Counterscreens for Selectivity:
Thrombin. In a 96-well white opaque plate, 80 μl of assay buffer was added to each well. Test compounds were added, and serially diluted as above, to generate a concentration range of approximately 1-100 μM. Human alpha-thrombin (Enzyme Research Labs) was diluted in assay buffer to a final concentration of 12.5 nM. 80 μl of this enzyme solution was added to the assay wells. The enzyme/compound mixtures were incubated for 10 minutes at room temperature. Fluorogenic substrate (Boc-Val-Pro-Arg-7-amido-4-methylcoumarin; Sigma) was added to assay wells at a final concentration of 20 μM. The assay plate was spun for 1 minute at 1500 g and then read at 37° C. in a SpectraMax M2 plate reader (λex=380 nm and λem=460 nm). Activity was quantified as the rate of change in fluorescence, which corresponds to the rate of substrate cleavage. IC50 values were determined as the concentration of inhibitor that produced 50% of the rate of change of control wells without any inhibitor. For compounds with activity <1 μM, the assay was repeated with a lower concentration range, typically from 10-1000 nM.

Chain of Human FXIIa (P00748 373-615): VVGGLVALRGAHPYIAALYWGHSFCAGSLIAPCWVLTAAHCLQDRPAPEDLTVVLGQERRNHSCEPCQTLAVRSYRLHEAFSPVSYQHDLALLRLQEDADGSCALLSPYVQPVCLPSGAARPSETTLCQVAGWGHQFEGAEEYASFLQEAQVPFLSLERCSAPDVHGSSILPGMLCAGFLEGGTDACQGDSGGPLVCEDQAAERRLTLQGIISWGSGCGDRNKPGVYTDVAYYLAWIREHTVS
Chain of Human FXIIa (P00748 20-372 partner): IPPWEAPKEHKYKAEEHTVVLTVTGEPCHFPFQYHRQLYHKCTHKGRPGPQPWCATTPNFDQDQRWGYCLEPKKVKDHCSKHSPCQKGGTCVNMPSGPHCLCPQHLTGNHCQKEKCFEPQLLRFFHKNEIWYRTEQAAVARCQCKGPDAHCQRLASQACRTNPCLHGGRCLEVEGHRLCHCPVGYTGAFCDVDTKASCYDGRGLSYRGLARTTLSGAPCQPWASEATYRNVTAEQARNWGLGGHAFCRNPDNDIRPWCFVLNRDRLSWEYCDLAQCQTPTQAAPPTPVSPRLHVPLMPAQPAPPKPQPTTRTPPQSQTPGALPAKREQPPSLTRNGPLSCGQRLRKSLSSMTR

SMILES	IC50 (Human FXIIa)	IC50 (Human alpha-thrombin)
Cc1cc2c(C(=O)n3nc4c(c3N)CCN(S(C)(=O)=O)C4)cccc2[nH]1 [Example 101, (3-amino-6-(methylsulfonyl)-4,5,6,7-tetrahydro-pyrazolo[3,4-c]pyridin-2-yl)(2-methyl-1H-indol-4-yl)methanone]	0.02 µM	10 µM
CS(=O)(=O)N1CCc2c(nn(C(=O)C3CCNc4ccccc43)c2N)C1 (centres unmarked) [Example 103, (3-amino-6-(methylsulfonyl)-4,5,6,7-tetrahydro-pyrazolo[3,4-c]pyridin-2-yl)(1,2,3,4-tetrahydro-quinolin-4-yl)methanone]	0.35 µM	30 µM
CS(=O)(=O)N1CCc2c(N)nn(C(=O)C3CCNc4ccccc43)c2C1 (centres unmarked) [Example 104, (3-amino-6-(methylsulfonyl)-4,5,6,7-tetrahydro-pyrazolo[3,4-c]pyridin-1-yl)(1,2,3,4-tetrahydro-quinolin-4-yl)methanone]	80 µM	> 85 µM
Nc1c2c(nn1C(=O)C1CCNc3ccccc31)CN(S(=O)(=O)c1ccccc1)CC2 (centres unmarked) [Example 105, (3-amino-6-(phenylsulfonyl)-4,5,6,7-tetrahydro-pyrazolo[3,4-c]pyridin-2-yl)(1,2,3,4-tetrahydro-quinolin-4-yl)methanone]	1 µM	> 100 µM
Nc1nn(C(=O)C2CCNc3ccccc32)c2c1CCN(S(=O)(=O)c1ccccc1)C2 (centres unmarked) [Example 106, (3-amino-6-(phenylsulfonyl)-4,5,6,7-tetrahydro-pyrazolo[3,4-c]pyridin-1-yl)(1,2,3,4-tetrahydro-quinolin-4-yl)methanone]	50 µM	70 µM
CC(=O)N1CCc2c(nn(C(=O)C3CCNc4ccccc43)c2N)C1 (centres unmarked) [Example 107, 1-(3-amino-2-(1,2,3,4-tetrahydro-quinoline-4-carbonyl)-4,5-dihydro-2H-pyrazolo[3,4-c]pyridin-6(7H)-yl)ethanone]	1.8 µM	> 40 µM
CC(=O)N1CCc2c(N)nn(C(=O)C3CCNc4ccccc43)c2C1 (centres unmarked) [Example 108, 1-(3-amino-1-(1,2,3,4-tetrahydro-quinoline-4-carbonyl)-4,5-dihydro-1H-pyrazolo[3,4-c]pyridin-6(7H)-yl)ethanone]	80 µM	> 150 µM
Nc1c2c(nn1C(=O)C1CCNc3ccccc31)CN(C(=O)c1ccccc1)CC2 (centres unmarked) [Example 109, (3-amino-2-(1,2,3,4-tetrahydro-quinoline-4-carbonyl)-4,5-dihydro-2H-pyrazolo[3,4-c]pyridin-6(7H)-yl)(phenyl)-methanone]	0.8 µM	> 75 µM
Nc1nn(C(=O)C2CCNc3ccccc32)c2c1CCN(C(=O)c1ccccc1)C2 (centres unmarked) [Example 110, (3-amino-1-(1,2,3,4-tetrahydro-quinoline-4-carbonyl)-4,5-dihydro-1H-pyrazolo[3,4-c]pyridin-6(7H)-yl)(phenyl)-methanone]	60 µM	> 65 µM
CNS(=O)(=O)N1CCc2c(nn(C(=O)C3CCNc4ccccc43)c2N)C1 (centres unmarked) [Example 111, 3-amino-N-methyl-2-(1,2,3,4-tetrahydro-quinoline-4-carbonyl)-4,5-dihydro-2H-pyrazolo[3,4-c]pyridine-6(7H)-sulfonamide]	2 µM	> 50 µM
CNS(=O)(=O)N1CCc2c(N)nn(C(=O)C3CCNc4ccccc43)c2C1 (centres unmarked) [Example 112, 3-amino-N-methyl-1-(1,2,3,4-tetrahydro-quinoline-4-carbonyl)-4,5-dihydro-1H-pyrazolo[3,4-c]pyridine-6(7H)-sulfonamide]	> 70 µM	> 70 µM
CNC(=O)N1CCc2c(N)nn(C(=O)C3CCNc4ccccc43)c2C1 (centres unmarked) [Example 113, 3-amino-N-methyl-1-(1,2,3,4-tetrahydro-quinoline-4-carbonyl)-4,5-dihydro-1H-pyrazolo[3,4-c]pyridine-6(7H)-carboxamide]	95 µM	> 100 µM
COC(=O)N1CCc2c(nn(C(=O)C3CCNc4ccccc43)c2N)C1 (centres unmarked) [Example 114, methyl 3-amino-2-(1,2,3,4-tetrahydro-quinoline-4-carbonyl)-4,5-dihydro-2H-pyrazolo[3,4-c]pyridine-6(7H)-carboxylate]	0.45 µM	> 80 µM
Nc1c2c(nn1C(=O)C1CCNc3ccccc31)CN(C(=O)OCc1ccccc1)CC2 (centres unmarked) [Example 116, benzyl 3-amino-2-(1,2,3,4-tetrahydro-quinoline-4-carbonyl)-4,5-dihydro-2H-pyrazolo[3,4-c]pyridine-6(7H)-carboxylate]	1 µM	17 µM
Nc1nn(C(=O)C2CCNc3ccccc32)c2c1CCN(C(=O)OCc1ccccc1)C2 (centres unmarked) [Example 117, benzyl 3-amino-1-(1,2,3,4-tetrahydro-quinoline-4-carbonyl)-4,5-dihydro-1H-pyrazolo[3,4-c]pyridine-6(7H)-carboxylate]	45 µM	5 µM
Nc1c2c(nn1C(=O)C1CCNc3ccccc31)CNCC2 (centres unmarked) [Example 118, (3-amino-4,5,6,7-tetrahydro-pyrazolo[3,4-c]pyridin-2-yl)(1,2,3,4-tetrahydro-quinolin-4-yl)methanone]	0.6 µM	> 100 µM
CCC(=O)N1CCc2c(nn(C(=O)C3CCNc4ccccc43)c2N)C1 (centres unmarked) [Example 119, 1-(3-amino-2-(1,2,3,4-tetrahydro-quinoline-4-carbonyl)-4,5-dihydro-2H-pyrazolo[3,4-c]pyridin-6(7H)-yl)propan-1-one]	0.45 µM	> 85 µM
CCC(=O)N1CCc2c(N)nn(C(=O)C3CCNc4ccccc43)c2C1 (centres unmarked) [Example 120, 1-(3-amino-1-(1,2,3,4-tetrahydro-quinoline-4-carbonyl)-4,5-dihydro-1H-pyrazolo[3,4-c]pyridin-6(7H)-yl)propan-1-one]	15 µM	> 75 µM
CC(C)C(=O)N1CCc2c(nn(C(=O)C3CCNc4ccccc43)c2N)C1 (centres unmarked) [Example 121, 1-(3-amino-2-(1,2,3,4-tetrahydro-quinoline-4-carbonyl)-4,5-dihydro-2H-pyrazolo[3,4-c]pyridin-6(7H)-yl)-2-methylpropan-1-one]	0.4 µM	> 80 µM
CN(C)C(=O)N1CCc2c(nn(C(=O)C3CCNc4ccccc43)c2N)C1 (centres unmarked) [Example 123, 3-amino-N,N-dimethyl-2-(1,2,3,4-tetrahydro-quinoline-4-carbonyl)-4,5-dihydro-2H-pyrazolo[3,4-c]pyridine-6(7H)-carboxamide]	0.35 µM	> 80 µM
CCS(=O)(=O)N1CCc2c(nn(C(=O)C3CCNc4ccccc43)c2N)C1 (centres unmarked) [Example 125, (3-amino-6-(ethylsulfonyl)-4,5,6,7-tetrahydro-pyrazolo[3,4-c]pyridin-2-yl)(1,2,3,4-tetrahydro-quinolin-4-yl)methanone]	0.25 µM	100 µM
CCS(=O)(=O)N1CCc2c(N)nn(C(=O)C3CCNc4ccccc43)c2C1 (centres unmarked) [Example 126, (3-amino-6-(ethylsulfonyl)-4,5,6,7-tetrahydro-pyrazolo[3,4-c]pyridin-1-yl)(1,2,3,4-tetrahydro-quinolin-4-yl)methanone]	32 µM	> 70 µM
CC(C)S(=O)(=O)N1CCc2c(nn(C(=O)C3CCNc4ccccc43)c2N)C1 (centres unmarked) [Example 127, (3-amino-6-(isopropyl-sulfonyl)-4,5,6,7-tetrahydro-pyrazolo[3,4-c]pyridin-2-yl)(1,2,3,4-tetrahydro-quinolin-4-yl)methanone]	0.2 µM	> 70 µM
CC(C)S(=O)(=O)N1CCc2c(N)nn(C(=O)C3CCNc4ccccc43)c2C1 (centres unmarked) [Example 128, (3-amino-6-(isopropyl-sulfonyl)-4,5,6,7-tetrahydro-pyrazolo[3,4-c]pyridin-1-yl)(1,2,3,4-tetrahydro-quinolin-4-yl)methanone]	28 µM	> 65 µM
CC(C)S(=O)(=O)N1CCc2c(nn(C(=O)C3CCNc4ccc(F)cc43)c2N)C1 (centres unmarked) [Example 136, (3-amino-6-(isopropyl-sulfonyl)-4,5,6,7-tetrahydro-pyrazolo[3,4-c]pyridin-2-yl)(6-fluoro-1,2,3,4-tetrahydro-quinolin-4-yl)methanone]	0.08 µM	> 55 µM
CC(C)(C)S(=O)(=O)N1CCc2c(nn(C(=O)C3CCNc4ccc(F)cc43)c2N)C1 (centres unmarked) [Example 138, (3-amino-6-(tert-butylsulfonyl)-4,5,6,7-tetrahydro-pyrazolo[3,4-c]pyridin-2-yl)(6-fluoro-1,2,3,4-tetrahydro-quinolin-4-yl)methanone]	0.08 µM	> 100 µM
Nc1c2c(nn1C(=O)C1CCNc3ccc(F)cc31)CN(S(=O)(=O)CF)CC2 (centres unmarked) [Example 140, (3-amino-6-(fluoromethyl-sulfonyl)-4,5,6,7-tetrahydro-pyrazolo[3,4-c]pyridin-2-yl)(6-fluoro-1,2,3,4-tetrahydro-quinolin-4-yl)methanone]	0.13 µM	60 µM
Nc1c2c(nn1C(=O)C1CCNc3ccc(F)cc31)CN(S(=O)(=O)CC(F)F)CC2 (centres unmarked) [Example 142, (3-amino-6-(2,2-difluoroethyl-sulfonyl)-4,5,6,7-tetrahydro-pyrazolo[3,4-c]pyridin-2-yl)(6-fluoro-1,2,3,4-tetrahydro-quinolin-4-yl)methanone]	0.2 µM	40 µM
